Structures are written as SMILES.

The term inhibition denotes the relative decrease from the control value, in per cent. Low values mean a response near the control, high ones a response far below the control.

T1 sequence (P08546 whole entry): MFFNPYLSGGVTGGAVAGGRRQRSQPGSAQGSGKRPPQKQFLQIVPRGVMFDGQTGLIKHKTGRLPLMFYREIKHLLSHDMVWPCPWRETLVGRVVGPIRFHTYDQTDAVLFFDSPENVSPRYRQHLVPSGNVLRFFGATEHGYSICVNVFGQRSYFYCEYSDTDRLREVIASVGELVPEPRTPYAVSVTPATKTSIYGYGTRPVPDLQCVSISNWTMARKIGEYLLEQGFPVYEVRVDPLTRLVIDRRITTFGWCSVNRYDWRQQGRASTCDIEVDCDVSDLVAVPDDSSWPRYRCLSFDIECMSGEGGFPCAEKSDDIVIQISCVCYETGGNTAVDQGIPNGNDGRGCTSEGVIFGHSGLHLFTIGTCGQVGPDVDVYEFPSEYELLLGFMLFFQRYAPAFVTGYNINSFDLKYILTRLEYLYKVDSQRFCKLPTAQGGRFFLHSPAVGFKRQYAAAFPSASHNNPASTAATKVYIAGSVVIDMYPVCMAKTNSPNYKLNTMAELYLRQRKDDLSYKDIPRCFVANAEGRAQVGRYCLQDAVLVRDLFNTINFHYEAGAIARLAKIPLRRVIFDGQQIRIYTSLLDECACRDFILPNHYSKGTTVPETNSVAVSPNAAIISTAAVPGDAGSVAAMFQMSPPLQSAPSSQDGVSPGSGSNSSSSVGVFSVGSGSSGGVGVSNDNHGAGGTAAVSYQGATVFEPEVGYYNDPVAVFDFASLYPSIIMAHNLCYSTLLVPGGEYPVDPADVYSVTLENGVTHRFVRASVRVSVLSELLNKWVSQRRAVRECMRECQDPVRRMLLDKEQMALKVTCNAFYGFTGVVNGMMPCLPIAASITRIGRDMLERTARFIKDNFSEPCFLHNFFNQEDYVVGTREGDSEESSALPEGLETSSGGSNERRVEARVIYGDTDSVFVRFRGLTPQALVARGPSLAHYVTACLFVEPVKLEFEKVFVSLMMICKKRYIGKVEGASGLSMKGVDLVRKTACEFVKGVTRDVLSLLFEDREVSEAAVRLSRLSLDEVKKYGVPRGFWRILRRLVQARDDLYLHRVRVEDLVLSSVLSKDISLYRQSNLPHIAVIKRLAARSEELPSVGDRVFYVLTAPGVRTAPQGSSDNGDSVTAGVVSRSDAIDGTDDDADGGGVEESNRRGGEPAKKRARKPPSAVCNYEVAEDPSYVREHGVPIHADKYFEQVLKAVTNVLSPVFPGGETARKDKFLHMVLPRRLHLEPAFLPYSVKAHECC

The test addresses T1, HCMV polymerase (Human cytomegalovirus, UniProt P08546).
T1 construct: made in house; host or cells: SF-9 insect cells infected with recombinant baculovirus
In words: HCMV polymerase assay (scintillation proximity assay). It counts as biochemical. Particulars: percentage of inhibition at 25 μM concentration in CMV polymerase assay. The procedure, abridged: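 Baculovirus/SF-9-expressed HCMV polymerase in 5.4 mM HEPES pH 7.5, 11.7 mM KCl, 4.5 mM MgCl2, 0.36 mg/ml BSA, 90 nM 3H-dTTP, with or without 2 mM CHAPS. Started with 6 nM biotinylated poly(dA)-oligo(dT), 30 min at 25 or 37 °C, EDTA-stopped, read by streptavidin-SPA counting; % inhibition at 25 μM.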
In general terms: Scintillation proximity formats need no separation of bound from free tracer.
On to `O=C(Nc1nnc(NCCc2c[nH]c3ccccc23)s1)c1cc(F)cc(F)c1` [compound 458, 3,5-difluoro-N-(5-{[2-(1H-indol-3-yl)ethyl]amino}-1,3,4-thiadiazol-2-yl)benzamide], for which the inhibition at 25 µM amounted to 20.7%.
Still for that read-out and setting: under `O=C(Nc1nnc(NCCCNC2CCCCC2)s1)c1cccc([N+](=O)[O-])c1` [compound 137, N-(5-{[3-(cyclohexylamino)propyl]amino}-1,3,4-thiadiazol-2-yl)-3-nitrobenzamide] stands 56.4%; under `CCCCCCCCCCCNc1nnc(NC(=O)c2ccc(C(F)(F)F)cc2)s1` [compound 239, 4-(trifluoromethyl)-N-[5-(undecylamino)-1,3,4-thiadiazol-2-yl]benzamide], 41.4%.
`O=C(Nc1nnc(NCCc2cccs2)s1)c1ccc(I)cc1` [compound 430, 4-iodo-N-(5-{[2-(2-thienyl)ethyl]amino}-1,3,4-thiadiazol-2-yl)benzamide] gave an inhibition at 25 µM of 23.1%.
As for `CCCCCCCCCCCNc1nnc(NC(=O)c2cc3ccccc3s2)s1` [compound 257, N-[5-(undecylamino)-1,3,4-thiadiazol-2-yl]-1-benzothiophene-2-carboxamide], the inhibition at 25 µM was determined as 39.8%.
The same measure, in the same setting: under `O=C(/C=C/c1ccccc1)Nc1nnc(NCCc2c[nH]c3ccccc23)s1` [compound 153, (E)-N-(5-{[2-(1H-indol-3-yl)ethyl]amino}-1,3,4-thiadiazol-2-yl)-3-phenyl-2-propenamide] stands 53.7%; under `COc1ccccc1C(=O)Nc1nnc(NC2CCCCCC2)s1` [compound 310, N-[5-(cycloheptylamino)-1,3,4-thiadiazol-2-yl]-2-methoxybenzamide], 34%.
Same read-out and setting: the same measure for `CCCCCCCC/C=C/CCCCCCCC(=O)Nc1nnc(NCC(c2ccccc2)c2ccccc2)s1` [compound 38, (E)-N-{5-[(2,2-diphenylethyl)amino]-1,3,4-thiadiazol-2-yl}-9-octadecenamide]: 87.3%.
Same read-out and setting: under `O=C(Nc1nnc(NC2CCCCCC2)s1)c1cc(F)cc(F)c1` [compound 300, N-[5-(cycloheptylamino)-1,3,4-thiadiazol-2-yl]-3,5-difluorobenzamide] stands 34.9%.
For the molecule `O=C(Nc1nnc(NCc2ccncc2)s1)c1c(Cl)cccc1Cl` [compound 84, 2,6-dichloro-N-{5-[(4-pyridinylmethyl)amino]-1,3,4-thiadiazol-2-yl}benzamide], the inhibition at 25 µM turned out to be 67.6%.
As for `O=C(/C=C/c1ccccc1Cl)Nc1nnc(NCc2cccc3ccccc23)s1` [compound 443, (E)-3-(2-chlorophenyl)-N-{5-[(1-naphthylmethyl)amino]-1,3,4-thiadiazol-2-yl]-2propenamide], the inhibition at 25 µM amounted to 22.1%.
On the same count and under the same terms, the same measure for `CCCCC(CC)CNc1nnc(NC(=O)c2ccc(Cl)c(Cl)c2)s1` (stereo not shown) [compound 461, 3,4-dichloro-N-{5-[(2-ethylhexyl)amino]-1,3,4-thiadiazol-2-yl}benzamide]: 20.6%; for `O=C(/C=C/c1ccccc1)Nc1nnc(NCCc2cccs2)s1` [compound 77, (E)-3-phenyl-N-(5-{[2-(2-thienyl)ethyl]amino}-1,3,4-thiadiazol-2-yl)-2-propenamide]: 68.3%; for `O=C(Nc1nnc(NCCCN2CCCC2=O)s1)c1ccc2c(c1)C(=O)OC2=O` [compound 184, 1,3-dioxo-N-(5-{[3-(2-oxo-1-pyrrolidinyl)propyl]amino}-1,3,4-thiadiazol-2-yl)-1,3-dihydro-2-benzofuran-5-carboxamide]: 47.8%.
As for `O=C(Nc1nnc(NCCNc2ccccc2)s1)c1ccc(S(=O)(=O)F)cc1` [compound 204, 4-[({5-[(2-anilinoethyl)amino]-1,3,4-thiadiazol-2-yl}amino)carbonyl]benzenesulfonyl fluoride], the “% Inhib” value worked out at 45.0%.
`O=C(Nc1nnc(NCc2ccc(F)cc2)s1)c1cc(F)cc(F)c1` [compound 451, 3,5-difluoro-N-{5-[(4-fluorobenzyl)amino]-1,3,4-thiadiazol-2-yl}benzamide] showed an inhibition at 25 µM of 21.4%.
For the molecule `CCCCCCCC/C=C/CCCCCCCC(=O)Nc1nnc(NCc2ccc(OC)c(OC)c2)s1` [compound 100, (E)-N-{5-[(3,4-dimethoxybenzyl)amino]-1,3,4-thiadiazol-2-yl}-9-octadecenamide], the inhibition at 25 µM came out at 65.1%.
`O=C(Nc1nnc(NCc2ccco2)s1)c1ccc(Cl)c(Cl)c1` [compound 247, 3,4-dichloro-N-{5-[(2-furylmethyl)amino]-1,3,4-thiadiazol-2-yl}benzamide] yielded an inhibition at 25 µM of 40.9%.
`O=C(/C=C/c1ccccc1Cl)Nc1nnc(NCc2ccco2)s1` [compound 251, (E)-3-(2-chlorophenyl)-N-{5-[(2-furylmethyl)amino]-1,3,4-thiadiazol-2-yl}-2-propenamide]: at 25 µM the inhibition was 40.3%.
`O=C(/C=C/c1ccccc1)Nc1nnc(NCCC(c2ccccc2)c2ccccc2)s1` [compound 331, (E)-N-{5-[(3,3-diphenylpropyl)amino]-1,3,4-thiadiazol-2-yl}-3-phenyl-2-propenamide] showed an inhibition at 25 µM of 32.1%.
On the same count and under the same terms, the same measure for `CC(=O)NCCNc1nnc(NC(=O)c2cc3ccccc3s2)s1` [compound 412, N-(5-{[2-(acetylamino)ethyl]amino}-1,3,4-thiadiazol-2-yl)-1-benzothiophene-2-carboxamide]: 24.7%; for `O=C(Nc1nnc(NCCCNC2CCCCC2)s1)c1ccc(Cl)c(Cl)c1` [compound 172, 3,4-dichloro-N-(5-{[3-(cyclohexylamino)propyl]amino}-1,3,4-thiadiazol-2-yl)benzamide]: 49.7%.
On the same count and under the same terms, under `O=C(Nc1nnc(NC2CCN(Cc3ccccc3)CC2)s1)c1cc2ccccc2s1` [compound 218, N-{5-[(1-benzyl-4-piperidinyl)amino]-1,3,4-thiadiazol-2-yl}-1-benzothiophene-2-carboxamide] stands 43.6%.
On the same count and under the same terms, under `COc1ccccc1C(=O)Nc1nnc(NCCc2ccc(S(N)(=O)=O)cc2)s1` [compound 366, N-(5-{[4-(aminosulfonyl)phenethyl]amino}-1,3,4-thiadiazol-2-yl)-2-methoxybenzamide] stands 28.6%; under `O=C(/C=C/c1ccccc1)Nc1nnc(NCc2cccnc2)s1` [compound 421, (E)-3-phenyl-N-{5-[(3-pyridinylmethyl)amino]-1,3,4-thiadiazol-2-yl}-2-propenamide], 24%.
`NS(=O)(=O)c1ccc(CCNc2nnc(NC(=O)c3ccc(Br)cc3)s2)cc1` [compound 152, N-(5-{[4-(aminosulfonyl)phenethyl]amino}-1,3,4-thiadiazol-2-yl)-4-bromobenzamide] showed an inhibition at 25 µM of 53.9%.
For the molecule `NS(=O)(=O)c1ccc(CCNc2nnc(NC(=O)c3ccc(Cl)c(Cl)c3)s2)cc1` [compound 142, N-(5-{[4-(aminosulfonyl)phenethyl]amino}-1,3,4-thiadiazol-2-yl)-3,4-dichlorobenzamide], at 25 µM the inhibition was 55.4%.
On the same count and under the same terms, the same measure for `CCOc1ccc2ccccc2c1C(=O)Nc1nnc(NCc2cccnc2)s1` [compound 66, 2-ethoxy-N-{5-[(3-pyridinylmethyl)amino]-1,3,4-thiadiazol-2-yl}-1-naphthamide]: 71.9%.

Values taken from patent publication US6150385A, “1,3,4-thiadiazoles useful for the treatment of CMV infections” (Pharmacia & Upjohn Company, priority 1999, dated 2000).
